# Data taken from US8470534B2, “Methods of predicting resistance or sensitivity to therapies for cancer” (priority 2006, dated 2013).
# Columns and labels:
# [1] = test system: MCF7, T47D, and Zr-75-1 cells; test: Immunoblot of cyclin D1 and RB phosphorylation after hormone deprivation with Tam; format: cell-based, human; conditions: wild-type cells; CDT serum in addition to Tam, 72 hours
# Description: RB-deficient cells are able to bypass estrogen ablation therapy. To determine the effect of first-line breast cancer antiestrogen therapies on RB function, cells are exposed to several therapeutically relevant conditions. Specifically, wild-type MCF7, T47D, and Zr-75-1 cells are cultured in medium containing either FBS or charcoal dextran-treated (CDT) serum in addition to Tam, so as to antagonize ER function. […] U20S and SaOS2 cells are included as controls for RB and PI 61NK4a expression levels, respectively (FIG. 4a).
# (§1) To study the effect of estrogen depletion, cells are cultured for 72 hours in phenol red-free DMEM supplemented with 10% CDT serum with addition of 10^−9 M 4-HydroxyTam or 10^−6 M ICI where indicated. Cell growth assays are performed by trypsinizing cells and counting by trypan blue exclusion every 3 days.
# Cells are harvested by trypsinization and lysed in RIPA buffer. Equal amounts of protein, as determined by Bio-Rad DC assay, are resolved by SDS-PAGE. Specific proteins are detected by standard immunoblotting procedures using the following primary antibodies: p16INK4a (F-12; 1:500 dilution), cyclin D1 (H295), PCNA (pc10), cyclin E (HE12), cyclin A (C-19), MCM7 (141.2), E2F3 (C-18), cdk4 (H-22), lamin B (M-20), p21 (C-19), p53 (Ab-6; 1:500 dilution), RB phospho ser 780 (9307S; 1:500 dilution) and anti-RB (G3-245; 1:100 dilution). […]
# MCF7 cells = test: Cell growth assay in CDT/Tam over 9 days; format: cell-based, human
# Description: To understand the impact of RB deficiency on the response to hormone deprivation therapy, cells are cultured in CDT, CDT/Tam, or in the presence of pure antiestrogen, ICI182780 (CDT/ICI). Following treatment with these modalities, cells are labeled with BrdU to determine the influence of each agent on cell-cycle progression and the corresponding influence of RB knockdown on this response (FIG. 4B). These experiments are recapitulated in the polyclonal populations of T47D and Zr-75-1 donor and siRb88 cells (FIG. 4C). […] To elucidate the long-term growth effects of these therapies, cell proliferation assays are performed over 9 days. RB-proficient and -deficient MCF7 cells are seeded at equal densities and cultured in CDT/Tam (FIG. 4D). […] Similar results are evident in the same experiments with both T47D and Zr-75-1 RB-proficient and -deficient polyclonal pools (FIG. 4E).
# as §1
# [2] = test system: ER-positive human breast tumors; test: Recurrence outcome of ER-positive breast cancer patients on Tam monotherapy by RB/E2F target gene expression group; format: in vivo
# Description: To determine the significance of RB/E2F target gene expression in human breast cancer, a tumor microarray data set representing 60 breast cancer patients with ER-positive disease who are treated with Tam monotherapy is analyzed. The tumor specimens in all cases are both micro- and macrodissected. […] This clustering placed the macro- and micro-dissected samples from 59 of 60 patients in the same gene expression groups, with only 1 tumor signature split between the high and medium gene expression groups on the condition tree.
# To address the importance of the RB deficiency signature on therapeutic response, patient outcome is examined. […] For each patient, the time to disease recurrence is known, and a recurrence-free survival curve is generated (FIG. 6C). Patients responded poorly to Tam in the high expression group, wherein the median recurrence-free survival is 62.5 months, and only 35% remained recurrence free. […] Thus, compromised control of the RB/E2F axis is associated with poor response to Tam in human breast cancer.
# [3] = high expression group, Tam monotherapy
compound,measurement,setting,value
"CC/C(=C(\c1ccccc1)c1ccc(OCCN(C)C)cc1)c1ccccc1 [Tam, tamoxifen]",RB phosphorylation (immunoblot),[1],RB dephosphorylation
same,cyclin D1 levels (immunoblot),[1],cyclin D1 levels decreased
same,cell proliferation over 9 days,MCF7 cells; MCF7 cells lacking RB cultured in CDT/Tam,continue to proliferate
same,cell proliferation over 9 days,MCF7 cells; control (RB-proficient) MCF7 cells cultured in CDT/Tam,did not exhibit cell proliferation
same,median recurrence-free survival,[2]; [3],62.5 months
same,patients remaining recurrence free,[2]; [3],35%
same,patients remaining disease free,"[2]; low/medium RB target gene expression groups, Tam therapy",greater than 62%
same,incidence of cancer recurrence,"[2]; patients in the high RB/E2F target gene group, Tam monotherapy",65%
same,incidence of cancer recurrence,"[2]; patients in the other 2 groups (low/medium), Tam monotherapy",38%
